Measurements: patent US20210379066A1, “COMBINATIONS OF POSITIVE ALLOSTERIC MODULATORS AND NICOTINIC ACETYLCHOLINE RECEPTOR AGONISTS FOR TREATING OCULAR CONDITIONS” (Oyster Point Pharma, Inc., priority 2018, published 2021)
Values joined by “and” are separate entries in the source; they are usually repeats but may differ in a detail not shown here. Equal entries are not always repeated. Where two headings read alike, the source gives them in different places.

Columns and labels:
[1] = Pharmacokinetics in human subjects after 28 days of intranasal administration (Example 7); type: in vivo
Procedure: Blood plasma for the patients was collected on Day 29 predose (time 0) and after a series of time points (10 min, 20 min, 30 min, 1 hr, 2 hrs, 4 hrs, 5 hrs, 6 hrs, 7 hrs, 8 hrs, and 24 hrs) after a single administration of drug. The blood plasma was analyzed for Compound 1.
The following pharmacokinetic parameters for Compound 1 were calculated: • Cmax: Maximum observed concentration, observed by inspection of individual study participant plasma concentration time plots. • Tmax: Time of maximum observed concentration, obtained directly from the observed concentration time data. • AUClast: The area under the plasma concentration time curve, from time 0 to the last measurable non-zero concentration, calculated by a combination of linear and logarithmic trapezoidal methods (Linear up/log down method). • AUC0-4h: The area under the plasma concentration time curve, from time 0 to the 4 h time point, calculated by a combination of linear and logarithmic trapezoidal methods (Linear up/log down method). • AUCinf: The area from zero time (pre-dose) extrapolated to infinite time (AUCinf) will be calculated as follows: AUCinf=AUClast+Cz/λz. • AUC % Extrap: The percentage of AUCinf obtained by extrapolation (AUC % Extrap) will be calculated as follows:
[formula] • Half-life: Terminal elimination half-life.

human nAChR alpha7 = target: T1, human nAChR alpha7 (Homo sapiens, UniProt P36544); experiment: Agonist activity, two-electrode voltage clamp in Xenopus oocytes (Examples 2 and 5); type: cell-based; conditions: versus ACh response
T1 construct: expressed in transfected cells; host or cells: Xenopus laevis oocytes (cDNA injection)
Procedure: (§1) All experiments were carried out at human nAChRs expressed in Xenopus oocytes using the method of cDNA expression. Xenopus oocytes were prepared and injected using standard procedures.
(§2) Briefly, ovaries were harvested from Xenopus Laevis females that have been deeply anesthetized by cooling at 4° C. and Tricaine methanesulfonate (MS-222 at a concentration of 150 mg/L) in sodium bicarbonate (300 mg/L). Once anesthetized the animal was decapitated and pithed following the rules of animal rights from the Geneva canton. A small piece of ovary was isolated for immediate preparation while the remaining part was placed at 4° C. in a sterile Barth solution containing in mM NaCl 88, KCl 1, NaHCO32.4, HEPES 10, MgSO4.7H2O 0.82, Ca(NO3)2.4H2O 0.33, CaCl2.6H2O 0.41, at pH 7.4, and supplemented with 20 μg/ml of kanamycin, 100 unit/ml penicillin. All recordings were performed at 18° C. and cells superfused with OR2 medium containing in mM: NaCl 88, KCl 2.5, HEPES 5, CaCl2.2H2O 1.8, MgCl2.6H2O 1, pH 7.4.
(§3) Currents evoked by ACh or other agonists were recorded using an automated process equipped with standard two-electrode voltage-clamp configuration (TEVC). Data were captured and analyzed using a HiQScreen proprietary data acquisition and analysis software running under Matlab (Mathworks Inc.).
(§4) See Example 1. […] The test concentration of acetylcholine chloride was 1280 micromolar.
(§5) Injections of cDNAs encoding for the human alpha3beta4, alpha3alpha5beta4, alpha4beta2, and alpha7 were performed in at least 95 oocytes were performed using a proprietary automated injection and receptor expression examined at least two days later. Oocytes were poked with two electrodes and their membrane potential maintained, unless indicated, at −80 mV throughout the experiment.
(§6) A protocol to determine agonistic activity in the oocytes expressing the nAChRs was developed. The cells were exposed to a series of increasing concentrations of a compound agonist for 10 seconds each at two minute intervals. The current evoked from exposure to the agonist at each concentration was recorded. For oocytes expressing alpha7 nAChRs, exposure to the agonist was reduced to 5 seconds. This process was repeated for each agonist tested against each type of nAChR expressing cell.
(§7) To evaluate the agonistic properties of compound 1 hemi-galactarate dihydrate a protocol of brief exposures to a series of growing concentrations of compound 1 hemi-galactarate dihydrate was used.
(§8) Agonist Preparation: See Example 1. […] The test concentration of acetylcholine chloride was 1280 micromolar.
(§9) Experimental Procedures: Injections of cDNAs encoding for the human alpha3beta4, alpha3alpha5beta4, alpha4beta2, alpha4alpha6beta2, and alpha7 were performed in at least 95 oocytes using a proprietary automated injection device. Cellular receptor expression was examined at least two days later. Oocytes were poked with two electrodes and their membrane potential maintained, unless indicated, at −80 mV throughout the experiment.
as §6, with “developed. Oocytes expressing a nAChR subtype were exposed to a brief test pulse of acetylcholine (1280 micromolar) while the holding current and response was evaluated. Cells displaying robust currents were washed for 90 seconds.” for “developed.”, “were then” for “were”, “nAChR” for “compound”, “intervals. The nAChR agonist test concentrations were 0.1, 0.3, 1, 3, 10, 30, 100, 300 (micromolar).” for “intervals.”

[2] = target: T2, human nAChR alpha3alpha5beta4 (Homo sapiens, UniProt P30532+P30926+P32297); experiment: as above; type: cell-based; conditions: versus ACh response
T2 construct: expressed in transfected cells; host or cells: Xenopus laevis oocytes (cDNA injection)
Procedure: as §1, §2, §3, §4, §5, §6, §7, §8, §9
as §6, with “developed. Oocytes expressing a nAChR subtype were exposed to a brief test pulse of acetylcholine (1280 micromolar) while the holding current and response was evaluated. Cells displaying robust currents were washed for 90 seconds.” for “developed.”, “were then” for “were”, “nAChR” for “compound”, “intervals. The nAChR agonist test concentrations were 0.1, 0.3, 1, 3, 10, 30, 100, 300 (micromolar).” for “intervals.”

human nAChR alpha3beta4 = target: T3, human nAChR alpha3beta4 (Homo sapiens, UniProt P30926+P32297); experiment: as above; type: cell-based; conditions: versus ACh response
T3 construct: expressed in transfected cells; host or cells: Xenopus laevis oocytes (cDNA injection)
Procedure: as §1, §2, §3, §4, §5, §6, §7, §8, §9
as §6, with “developed. Oocytes expressing a nAChR subtype were exposed to a brief test pulse of acetylcholine (1280 micromolar) while the holding current and response was evaluated. Cells displaying robust currents were washed for 90 seconds.” for “developed.”, “were then” for “were”, “nAChR” for “compound”, “intervals. The nAChR agonist test concentrations were 0.1, 0.3, 1, 3, 10, 30, 100, 300 (micromolar).” for “intervals.”

human nAChR alpha4beta2 = target: T4, human nAChR alpha4beta2 (Homo sapiens, UniProt P17787+P43681); experiment: as above; type: cell-based; conditions: versus ACh response
T4 construct: expressed in transfected cells; host or cells: Xenopus laevis oocytes (cDNA injection)
Procedure: as §1, §2, §3, §4, §5, §6, §7, §8, §9
as §6, with “developed. Oocytes expressing a nAChR subtype were exposed to a brief test pulse of acetylcholine (1280 micromolar) while the holding current and response was evaluated. Cells displaying robust currents were washed for 90 seconds.” for “developed.”, “were then” for “were”, “nAChR” for “compound”, “intervals. The nAChR agonist test concentrations were 0.1, 0.3, 1, 3, 10, 30, 100, 300 (micromolar).” for “intervals.”

[3] = Max, N=7, Day 29 dose after 28 days BID
[4] = Min, N=7, Day 29 dose after 28 days BID
[5] = human, plasma, other: intranasal spray, […] Compound 1, 50 μL spray in each nostril, Max, N=7, Day 29 dose after 28 days BID
[6] = human, plasma, other: intranasal spray, […] Compound 1, 50 μL spray in each nostril, Mean, N=7, Day 29 dose after 28 days BID
[7] = human, plasma, other: intranasal spray, […] Compound 1, 50 μL spray in each nostril, Median, N=7, Day 29 dose after 28 days BID

T3 sequence (P32297 32-505): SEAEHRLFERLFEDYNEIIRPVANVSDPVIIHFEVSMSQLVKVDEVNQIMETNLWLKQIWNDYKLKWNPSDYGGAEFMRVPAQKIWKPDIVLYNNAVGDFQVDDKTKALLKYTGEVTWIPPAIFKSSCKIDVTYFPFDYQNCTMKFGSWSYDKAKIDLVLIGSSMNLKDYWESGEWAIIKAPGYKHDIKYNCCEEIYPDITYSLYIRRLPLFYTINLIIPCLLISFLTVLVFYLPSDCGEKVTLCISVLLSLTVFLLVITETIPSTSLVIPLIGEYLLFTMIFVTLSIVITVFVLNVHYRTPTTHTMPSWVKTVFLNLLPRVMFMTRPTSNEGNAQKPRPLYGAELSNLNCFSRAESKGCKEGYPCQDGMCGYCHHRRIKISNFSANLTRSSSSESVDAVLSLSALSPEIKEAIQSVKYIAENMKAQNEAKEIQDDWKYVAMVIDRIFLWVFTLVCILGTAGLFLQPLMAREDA
T3 sequence (P30926 22-498): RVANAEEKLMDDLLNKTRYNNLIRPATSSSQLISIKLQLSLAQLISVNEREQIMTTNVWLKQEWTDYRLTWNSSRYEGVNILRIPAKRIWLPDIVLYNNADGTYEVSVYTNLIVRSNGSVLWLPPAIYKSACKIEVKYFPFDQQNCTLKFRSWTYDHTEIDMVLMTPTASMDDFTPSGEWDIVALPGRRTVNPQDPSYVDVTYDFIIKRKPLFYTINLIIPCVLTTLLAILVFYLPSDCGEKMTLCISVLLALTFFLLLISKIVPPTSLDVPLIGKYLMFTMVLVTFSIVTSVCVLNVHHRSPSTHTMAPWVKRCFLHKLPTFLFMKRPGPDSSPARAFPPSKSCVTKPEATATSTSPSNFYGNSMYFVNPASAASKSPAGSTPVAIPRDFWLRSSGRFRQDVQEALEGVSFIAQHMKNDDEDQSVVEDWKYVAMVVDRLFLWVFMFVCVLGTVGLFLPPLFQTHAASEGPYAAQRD
T2 sequence (P32297 32-505): as the sequence (P32297 32-505) above
T2 sequence (P30532 23-468): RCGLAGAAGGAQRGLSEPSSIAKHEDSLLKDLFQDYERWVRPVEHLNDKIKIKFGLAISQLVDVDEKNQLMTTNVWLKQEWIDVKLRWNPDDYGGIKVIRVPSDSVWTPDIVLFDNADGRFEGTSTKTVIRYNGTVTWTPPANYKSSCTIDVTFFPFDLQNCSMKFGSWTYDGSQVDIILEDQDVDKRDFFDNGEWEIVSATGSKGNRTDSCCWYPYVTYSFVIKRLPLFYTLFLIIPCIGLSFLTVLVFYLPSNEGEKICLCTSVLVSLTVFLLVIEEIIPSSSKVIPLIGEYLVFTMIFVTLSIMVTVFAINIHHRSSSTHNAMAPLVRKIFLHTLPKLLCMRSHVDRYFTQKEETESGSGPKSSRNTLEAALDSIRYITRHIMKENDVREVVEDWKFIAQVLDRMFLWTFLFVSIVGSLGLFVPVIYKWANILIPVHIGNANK
T2 sequence (P30926 22-498): as the sequence (P30926 22-498) above
T4 sequence (P43681 29-627 limits assumed): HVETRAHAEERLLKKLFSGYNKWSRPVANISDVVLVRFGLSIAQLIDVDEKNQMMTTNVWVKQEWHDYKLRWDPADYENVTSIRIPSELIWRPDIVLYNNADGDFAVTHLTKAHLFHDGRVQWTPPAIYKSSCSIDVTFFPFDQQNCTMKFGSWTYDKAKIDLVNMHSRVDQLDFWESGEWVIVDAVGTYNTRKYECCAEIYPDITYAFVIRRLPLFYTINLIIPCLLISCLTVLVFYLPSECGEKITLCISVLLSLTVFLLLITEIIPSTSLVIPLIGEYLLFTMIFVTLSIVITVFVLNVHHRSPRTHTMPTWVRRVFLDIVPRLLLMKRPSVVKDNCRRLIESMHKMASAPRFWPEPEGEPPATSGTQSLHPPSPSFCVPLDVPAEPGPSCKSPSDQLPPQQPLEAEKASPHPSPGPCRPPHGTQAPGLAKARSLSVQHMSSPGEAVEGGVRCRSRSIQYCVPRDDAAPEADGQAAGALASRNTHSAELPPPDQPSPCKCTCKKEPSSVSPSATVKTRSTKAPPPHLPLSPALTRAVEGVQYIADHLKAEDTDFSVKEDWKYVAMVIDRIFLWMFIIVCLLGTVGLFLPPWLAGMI
T4 sequence (P17787 26-502): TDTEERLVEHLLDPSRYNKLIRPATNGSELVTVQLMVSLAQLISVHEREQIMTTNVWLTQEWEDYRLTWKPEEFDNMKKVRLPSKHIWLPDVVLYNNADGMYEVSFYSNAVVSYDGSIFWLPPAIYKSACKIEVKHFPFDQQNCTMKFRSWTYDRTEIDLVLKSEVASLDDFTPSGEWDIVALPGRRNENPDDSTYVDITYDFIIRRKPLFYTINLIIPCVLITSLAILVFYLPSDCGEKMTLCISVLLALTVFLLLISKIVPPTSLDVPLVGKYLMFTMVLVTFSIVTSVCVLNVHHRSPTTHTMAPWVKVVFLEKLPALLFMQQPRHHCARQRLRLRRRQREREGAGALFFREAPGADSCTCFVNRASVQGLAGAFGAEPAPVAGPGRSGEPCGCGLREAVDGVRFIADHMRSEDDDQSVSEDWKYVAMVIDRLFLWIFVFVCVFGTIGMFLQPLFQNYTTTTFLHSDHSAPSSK
T1 sequence (P36544 23-502): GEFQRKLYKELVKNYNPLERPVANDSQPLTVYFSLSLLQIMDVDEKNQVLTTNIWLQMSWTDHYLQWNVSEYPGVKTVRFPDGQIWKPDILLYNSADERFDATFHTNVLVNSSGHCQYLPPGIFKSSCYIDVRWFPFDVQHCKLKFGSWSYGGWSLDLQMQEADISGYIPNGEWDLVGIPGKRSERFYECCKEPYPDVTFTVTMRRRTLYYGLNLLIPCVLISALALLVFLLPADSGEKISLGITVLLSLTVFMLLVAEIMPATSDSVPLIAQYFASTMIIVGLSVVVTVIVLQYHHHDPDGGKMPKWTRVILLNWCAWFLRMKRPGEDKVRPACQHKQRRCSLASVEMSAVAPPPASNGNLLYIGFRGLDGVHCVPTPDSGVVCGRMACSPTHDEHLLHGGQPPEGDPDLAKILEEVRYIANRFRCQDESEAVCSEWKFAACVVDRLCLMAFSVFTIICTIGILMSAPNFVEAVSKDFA

**Q.** For `C(=C\[C@H]1CCNC1)/c1cncnc1` [Compound 1, (R)-5-((E)-2-pyrrolidin-3-ylvinyl)pyrimidine], which “AUC % Extrap” value [1, 3] is on record?
**A.** 41.1%

**Q.** What about the Tmax [1, 3] of the same compound?
**A.** 1.2 h

**Q.** What about the “AUC % Extrap” value ([1]; Mean, N=7, Day 29 dose after 28 days BID) of the same compound?
**A.** 21.3%

**Q.** And the “AUC % Extrap” value ([1]; Median, N=7, Day 29 dose after 28 days BID)?
**A.** 23.3%

**Q.** And the “AUC % Extrap” value [1, 4]?
**A.** 3.69% and 3.67%

**Q.** And the AUCinf [1, 4]?
**A.** 1.21 ng·h/mL

**Q.** What about the AUClast [1, 4] of the same compound?
**A.** 0.801 ng·h/mL

**Q.** And the Cmax [1, 4]?
**A.** 0.621 ng/mL

**Q.** And the Tmax [1, 4]?
**A.** 0.17 h

**Q.** What about the half-life [1, 4] of the same compound?
**A.** 0.852 h

**Q.** What about the half-life ([1]; human, plasma, inhaled or intranasal, […] Compound 1, 50 μL spray in each nostril, Mean, N=7, Day 29 single intranasal dose of […] Compound 1 (2.0% hemigalactarate salt) after 28 days BID, 50 μL per nostril, read-out: Half-life (converted)) of the same compound?
**A.** 1.58 ± 0.818 h

**Q.** What about the Cmax ([1]; human, plasma, other: intranasal spray, […] Compound 1, 50 μL spray in each nostril, Max (individual subject maximum), N=7, Day 29 dose after 28 days BID, read-out: Cmax) of the same compound?
**A.** 5.49 ng/mL

**Q.** What about the AUC(0-inf) [1, 5] of the same compound?
**A.** 12.5 ng·h/mL

**Q.** What about the AUC(0-t) [1, 5] of the same compound?
**A.** 12.1 ng·h/mL

**Q.** What about the half-life ([1]; human, plasma, other: intranasal spray, […] Compound 1, 50 μL spray in each nostril, Max, N=7, Day 29 dose after 28 days BID, read-out: Half-life (converted)) of the same compound?
**A.** 2.83 h

**Q.** What about the AUC(0-inf) [1, 6] of the same compound?
**A.** 6.22 ± 4.63 ng·h/mL

**Q.** What about the AUC(0-t) [1, 6] of the same compound?
**A.** 5.22 ± 4.52 ng·h/mL

**Q.** And the Cmax ([1]; human, plasma, other: intranasal spray, […] Compound 1, 50 μL spray in each nostril, Mean, N=7, Day 29 dose after 28 days BID, read-out: Cmax)?
**A.** 2.26 ± 1.96 ng/mL

**Q.** What about the Tmax ([1]; human, plasma, other: intranasal spray, […] Compound 1, 50 μL spray in each nostril, Mean, N=7, Day 29 dose after 28 days BID, read-out: Tmax) of the same compound?
**A.** 0.7 h

**Q.** And the AUC(0-inf) [1, 7]?
**A.** 5.67 ng·h/mL

**Q.** And the AUC(0-t) [1, 7]?
**A.** 4.35 ng·h/mL

**Q.** What about the Cmax ([1]; human, plasma, other: intranasal spray, […] Compound 1, 50 μL spray in each nostril, Median, N=7, Day 29 dose after 28 days BID, read-out: Cmax) of the same compound?
**A.** 1.35 ng/mL

**Q.** What about the half-life ([1]; human, plasma, other: intranasal spray, […] Compound 1, 50 μL spray in each nostril, Median, N=7, Day 29 dose after 28 days BID, read-out: Half-life (converted)) of the same compound?
**A.** 1.12 h

**Q.** And the Tmax ([1]; human, plasma, other: intranasal spray, […] Compound 1, 50 μL spray in each nostril, Median, N=7, Day 29 dose after 28 days BID, read-out: Tmax)?
**A.** 0.5 h

**Q.** And the C0 ([1]; human, plasma, other: intranasal spray, […] Compound 1, 50 μL spray in each nostril, Day 29 predose after 28 days BID, detected in 4 out of 7 subjects, read-out: mean plasma concentration at time zero (predose))?
**A.** 0.264 ng/mL

**Q.** What about the concentration at 1 h ([1]; human, plasma, other: intranasal spray, […] Compound 1, 50 μL spray in each nostril, at 1 h after intranasal administration on Day 29, read-out: peak of mean plasma exposure) of the same compound?
**A.** 2.07 ng/mL

**Q.** What about the concentration at 24 h ([1]; human, plasma, other: intranasal spray, […] Compound 1, 50 μL spray in each nostril, no subject above lower limit of quantification, read-out: plasma concentration at 24 h post administration) of the same compound?
**A.** < 0.2 ng/mL

**Q.** What about the “fraction cleared from systemic circulation before the next administration” value ([1]; if administered every 12 hours (4 half-lives), from maximum individual half-life) of the same compound?
**A.** > 94%

**Q.** What about the agonist character (human nAChR alpha7) of the same compound?
**A.** weak partial agonist

**Q.** And the agonist character [2]?
**A.** full agonist

**Q.** What about the agonist character (human nAChR alpha3beta4) of the same compound?
**A.** full agonist

**Q.** And the agonist character (human nAChR alpha4beta2)?
**A.** full agonist
